Measurements reported in PubChem BioAssay (NCI).
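Each compound was tested at five concentrations against cells in 96-well plates for 48 hours. GI50 = concentration required for 50% inhibition of growth. TGI denotes the concentration required for complete inhibition of growth.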

Key:
Experiment in all cases: inhibition of tumour cell growth, NCI panel, 48 h
NCI-H226 lung = test system: NCI-H226 lung
U251 CNS = test system: U251 CNS
NCI-H522 lung = test system: NCI-H522 lung
SK-MEL-5 melanoma = test system: SK-MEL-5 melanoma
MALME-3M melanoma = test system: MALME-3M melanoma
SK-MEL-28 melanoma = test system: SK-MEL-28 melanoma
ACHN renal = test system: ACHN renal
DU-145 prostate = test system: DU-145 prostate
NCI/ADR-RES ovarian = test system: NCI/ADR-RES ovarian
786-0 renal = test system: 786-0 renal
IGROV1 ovarian = test system: IGROV1 ovarian
A549 NSCLC = test system: A549 NSCLC
BT-549 breast = test system: BT-549 breast
COLO 205 colon = test system: COLO 205 colon
M14 melanoma = test system: M14 melanoma
MOLT-4 leukemia = test system: MOLT-4 leukemia
KM12 colon = test system: KM12 colon
SF-268 CNS = test system: SF-268 CNS
SR leukemia = test system: SR leukemia
HCT-116 colon = test system: HCT-116 colon
SF-539 CNS = test system: SF-539 CNS
SF-295 CNS = test system: SF-295 CNS
K-562 leukemia = test system: K-562 leukemia
SK-MEL-2 melanoma = test system: SK-MEL-2 melanoma
UO-31 renal = test system: UO-31 renal
PC-3 prostate = test system: PC-3 prostate
TK-10 renal = test system: TK-10 renal
T-47D breast = test system: T-47D breast
RXF 393 renal = test system: RXF 393 renal
HOP-62 NSCLC = test system: HOP-62 NSCLC
A498 renal = test system: A498 renal
OVCAR-4 ovarian = test system: OVCAR-4 ovarian
HCC-2998 colon = test system: HCC-2998 colon
EKVX NSCLC = test system: EKVX NSCLC
HCT-15 colon = test system: HCT-15 colon
NCI-H460 lung = test system: NCI-H460 lung
RPMI-8226 leukemia = test system: RPMI-8226 leukemia
CAKI-1 renal = test system: CAKI-1 renal
CCRF-CEM leukemia = test system: CCRF-CEM leukemia
SNB-75 CNS = test system: SNB-75 CNS
HL-60(TB) leukemia = test system: HL-60(TB) leukemia
UACC-257 melanoma = test system: UACC-257 melanoma
UACC-62 melanoma = test system: UACC-62 melanoma
SK-OV-3 ovarian = test system: SK-OV-3 ovarian
SN12C renal = test system: SN12C renal
HOP-92 NSCLC = test system: HOP-92 NSCLC
LOX IMVI melanoma = test system: LOX IMVI melanoma
OVCAR-5 ovarian = test system: OVCAR-5 ovarian
NCI-H23 lung = test system: NCI-H23 lung
MCF7 breast = test system: MCF7 breast
HS 578T breast = test system: HS 578T breast
SNB-19 CNS = test system: SNB-19 CNS

`Cc1cccc(-c2cc(=O)c3cc(C)cnc3[nH]2)c1` was tested. Which TGI (NCI-H226 lung) did it give?
The TGI was 2.79 µM.

What about the TGI (U251 CNS) of the same molecule?
Its TGI is greater than 100 µM.

And the TGI (NCI-H522 lung)?
Its TGI is 0.259 µM.

And the TGI (SK-MEL-5 melanoma)?
Its TGI is 21 µM.

And the TGI (MALME-3M melanoma)?
Its TGI is greater than 100 µM.

What about the TGI (SK-MEL-28 melanoma) of the same molecule?
The TGI was greater than 100 µM.

What about the TGI (ACHN renal) of the same molecule?
Its TGI is greater than 100 µM.

And the TGI (DU-145 prostate)?
Its TGI is 13.3 µM.

What about the TGI (NCI/ADR-RES ovarian) of the same molecule?
Its TGI is 0.394 µM.

And the TGI (786-0 renal)?
Its TGI is greater than 100 µM.

What about the TGI (IGROV1 ovarian) of the same molecule?
Its TGI is greater than 100 µM.

And the TGI (A549 NSCLC)?
The TGI was greater than 100 µM.

And the TGI (BT-549 breast)?
Its TGI is greater than 58.3 µM.

What about the TGI (COLO 205 colon) of the same molecule?
The TGI was 0.382 µM.

What about the TGI (M14 melanoma) of the same molecule?
The TGI was greater than 100 µM.

And the TGI (MOLT-4 leukemia)?
The TGI was greater than 100 µM.

What about the TGI (KM12 colon) of the same molecule?
Its TGI is 16.4 µM.

What about the TGI (SF-268 CNS) of the same molecule?
The TGI was greater than 100 µM.

And the TGI (SR leukemia)?
The TGI was 1.7 µM.

What about the TGI (HCT-116 colon) of the same molecule?
The TGI was 11.4 µM.

And the TGI (SF-539 CNS)?
Its TGI is 2.62 µM.

And the TGI (SF-295 CNS)?
The TGI was 0.609 µM.

And the TGI (K-562 leukemia)?
Its TGI is greater than 33.3 µM.

And the TGI (SK-MEL-2 melanoma)?
The TGI was greater than 100 µM.

What about the TGI (UO-31 renal) of the same molecule?
The TGI was greater than 100 µM.

And the TGI (PC-3 prostate)?
Its TGI is greater than 56.9 µM.

And the TGI (TK-10 renal)?
Its TGI is greater than 100 µM.

And the TGI (T-47D breast)?
Its TGI is greater than 100 µM.

And the TGI (RXF 393 renal)?
Its TGI is greater than 100 µM.

What about the TGI (HOP-62 NSCLC) of the same molecule?
Its TGI is greater than 100 µM.

And the TGI (A498 renal)?
The TGI was greater than 24.2 µM.

And the TGI (OVCAR-4 ovarian)?
The TGI was greater than 100 µM.

What about the TGI (HCC-2998 colon) of the same molecule?
Its TGI is 6.82 µM.

And the TGI (EKVX NSCLC)?
Its TGI is greater than 100 µM.

What about the TGI (HCT-15 colon) of the same molecule?
The TGI was greater than 26.8 µM.

And the TGI (NCI-H460 lung)?
Its TGI is 13.1 µM.

And the TGI (RPMI-8226 leukemia)?
Its TGI is 30.1 µM.

What about the TGI (CAKI-1 renal) of the same molecule?
The TGI was greater than 100 µM.

What about the TGI (CCRF-CEM leukemia) of the same molecule?
The TGI was 36.9 µM.

And the TGI (SNB-75 CNS)?
Its TGI is greater than 100 µM.

What about the TGI (HL-60(TB) leukemia) of the same molecule?
The TGI was 0.355 µM.

And the TGI (UACC-257 melanoma)?
The TGI was greater than 100 µM.

What about the TGI (UACC-62 melanoma) of the same molecule?
The TGI was greater than 100 µM.

And the TGI (SK-OV-3 ovarian)?
The TGI was greater than 29.6 µM.

What about the TGI (SN12C renal) of the same molecule?
The TGI was greater than 94.6 µM.

What about the TGI (HOP-92 NSCLC) of the same molecule?
The TGI was greater than 100 µM.

And the TGI (LOX IMVI melanoma)?
Its TGI is greater than 100 µM.

What about the TGI (OVCAR-5 ovarian) of the same molecule?
Its TGI is greater than 100 µM.

What about the TGI (NCI-H23 lung) of the same molecule?
The TGI was greater than 35.9 µM.

With `O=C(/C=C(/C=C/c1csc2ccccc12)OB(F)F)/C=C/c1csc2ccccc12` as the molecule, how does the GI50 (NCI-H226 lung) read?
Its GI50 is greater than 50 µM.

And the TGI (NCI-H226 lung)?
The TGI was greater than 50 µM.

What about the GI50 (A549 NSCLC) of the same molecule?
Its GI50 is greater than 50 µM.

What about the TGI (A549 NSCLC) of the same molecule?
The TGI was greater than 50 µM.

What about the GI50 (SR leukemia) of the same molecule?
The GI50 was 0.23 µM.

And the TGI (SR leukemia)?
The TGI was greater than 50 µM.

And the GI50 (SF-295 CNS)?
The GI50 was greater than 26.2 µM.

What about the TGI (SF-295 CNS) of the same molecule?
The TGI was greater than 50 µM.

What about the GI50 (HOP-62 NSCLC) of the same molecule?
The GI50 was greater than 50 µM.

And the TGI (HOP-62 NSCLC)?
The TGI was greater than 50 µM.

And the GI50 (A498 renal)?
Its GI50 is greater than 50 µM.

What about the TGI (A498 renal) of the same molecule?
Its TGI is greater than 50 µM.

And the GI50 (NCI-H460 lung)?
The GI50 was greater than 50 µM.

What about the TGI (NCI-H460 lung) of the same molecule?
Its TGI is greater than 50 µM.

What about the GI50 (CCRF-CEM leukemia) of the same molecule?
Its GI50 is 0.244 µM.

And the TGI (CCRF-CEM leukemia)?
The TGI was greater than 50 µM.

What about the GI50 (SNB-75 CNS) of the same molecule?
Its GI50 is 2.79 µM.

And the TGI (SNB-75 CNS)?
Its TGI is greater than 50 µM.

What about the GI50 (MCF7 breast) of the same molecule?
Its GI50 is 1.06 µM.

And the TGI (MCF7 breast)?
The TGI was greater than 50 µM.

And the GI50 (SK-OV-3 ovarian)?
The GI50 was greater than 50 µM.

And the TGI (SK-OV-3 ovarian)?
Its TGI is greater than 50 µM.

What about the GI50 (HS 578T breast) of the same molecule?
Its GI50 is 2.06 µM.

And the TGI (HS 578T breast)?
Its TGI is greater than 50 µM.

What about the GI50 (SNB-19 CNS) of the same molecule?
Its GI50 is 3.62 µM.

What about the TGI (SNB-19 CNS) of the same molecule?
The TGI was greater than 50 µM.

`Cc1ccc(/C=C2\CN(C(=O)CCN3CCC(=NO)CC3)C/C(=C\c3ccc(C)cc3)C2=O)cc1` was tested. Which GI50 (NCI-H226 lung) did it give?
The GI50 was 1.83 µM.

What about the TGI (NCI-H226 lung) of the same molecule?
Its TGI is 3.86 µM.

What about the GI50 (SK-MEL-5 melanoma) of the same molecule?
Its GI50 is 1.73 µM.

What about the TGI (SK-MEL-5 melanoma) of the same molecule?
The TGI was 3.16 µM.

What about the GI50 (SK-MEL-28 melanoma) of the same molecule?
Its GI50 is 2.06 µM.

And the TGI (SK-MEL-28 melanoma)?
The TGI was 4.63 µM.

And the GI50 (ACHN renal)?
The GI50 was 1.4 µM.

And the TGI (ACHN renal)?
Its TGI is 2.83 µM.

And the GI50 (786-0 renal)?
Its GI50 is 1.68 µM.

And the TGI (786-0 renal)?
The TGI was 3.42 µM.

And the GI50 (A549 NSCLC)?
The GI50 was 2.43 µM.

What about the TGI (A549 NSCLC) of the same molecule?
The TGI was 7.68 µM.

What about the GI50 (SF-268 CNS) of the same molecule?
Its GI50 is 1.92 µM.

And the TGI (SF-268 CNS)?
The TGI was 4.7 µM.

And the GI50 (HCT-116 colon)?
The GI50 was 0.363 µM.

What about the TGI (HCT-116 colon) of the same molecule?
The TGI was 1.28 µM.

What about the GI50 (SF-539 CNS) of the same molecule?
Its GI50 is 1.77 µM.

What about the TGI (SF-539 CNS) of the same molecule?
The TGI was 3.27 µM.

And the GI50 (SK-MEL-2 melanoma)?
Its GI50 is 2.75 µM.

And the TGI (SK-MEL-2 melanoma)?
Its TGI is 7.02 µM.

What about the GI50 (UO-31 renal) of the same molecule?
Its GI50 is 1.42 µM.

And the TGI (UO-31 renal)?
Its TGI is 2.73 µM.

What about the GI50 (RXF 393 renal) of the same molecule?
The GI50 was 1.64 µM.

What about the TGI (RXF 393 renal) of the same molecule?
Its TGI is 3.05 µM.

And the GI50 (A498 renal)?
Its GI50 is 1.48 µM.

And the TGI (A498 renal)?
Its TGI is 2.96 µM.

What about the GI50 (HCC-2998 colon) of the same molecule?
The GI50 was 1.57 µM.

What about the TGI (HCC-2998 colon) of the same molecule?
The TGI was 3.18 µM.

And the GI50 (EKVX NSCLC)?
Its GI50 is 2.72 µM.

What about the TGI (EKVX NSCLC) of the same molecule?
Its TGI is 8.07 µM.

And the GI50 (RPMI-8226 leukemia)?
Its GI50 is 0.286 µM.

What about the TGI (RPMI-8226 leukemia) of the same molecule?
Its TGI is 0.885 µM.

And the GI50 (HL-60(TB) leukemia)?
Its GI50 is 1.69 µM.

What about the TGI (HL-60(TB) leukemia) of the same molecule?
The TGI was 4.6 µM.

And the GI50 (HOP-92 NSCLC)?
The GI50 was 1.86 µM.

What about the TGI (HOP-92 NSCLC) of the same molecule?
The TGI was 4.6 µM.

What about the GI50 (HS 578T breast) of the same molecule?
Its GI50 is 3.2 µM.

What about the TGI (HS 578T breast) of the same molecule?
Its TGI is greater than 100 µM.

And the GI50 (LOX IMVI melanoma)?
The GI50 was 0.185 µM.

What about the TGI (LOX IMVI melanoma) of the same molecule?
Its TGI is 0.397 µM.

And the GI50 (SNB-19 CNS)?
Its GI50 is 1.58 µM.

And the TGI (SNB-19 CNS)?
Its TGI is 4.43 µM.

And the GI50 (OVCAR-5 ovarian)?
Its GI50 is 1.79 µM.

And the TGI (OVCAR-5 ovarian)?
The TGI was 3.47 µM.
